Reference: patent US20200339625A1, “NOVEL RADIOMETAL-BINDING COMPOUNDS FOR DIAGNOSIS OR TREATMENT OF PROSTATE SPECIFIC MEMBRANE ANTIGEN-EXPRESSING CANCER” (PROVINCIAL HEALTH SERVICES AUTHORITY, priority 2017, published 2020)

Assays:
[1] = test system: mice bearing PSMA-expressing LNCAP cancer xenografts; experiment: Biodistribution of 68Ga-labeled compounds; format: in vivo
How it was run: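 NOD-SCID IL2RγKO male mice carried subcutaneous LNCaP xenografts grown to 5-8 mm over 5-6 weeks. Organs and blood were collected at 1 or 3 h after injection of the radiotracer and gamma-counted. Uptake was normalized to injected dose via a standard curve and expressed as %ID/g.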

[2] = test system: mice bearing LNCaP tumor xenografts; experiment: PET/CT imaging of 68Ga-labeled compounds; format: in vivo; details: for blood retention (qualitative): PET/CT images at 1 h and 3 h post-injection, comparison within the figure
How it was run: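 Male NOD SCID IL2Rγ KO mice bore subcutaneous LNCaP xenografts (1×10^7 cells, tumours 5-8 mm) and received 6-8 MBq tracer via tail vein under 2% isoflurane. At 50 min p.i., a 10-min CT and a 10-min static PET were acquired. For the 3 h time point, scanning began at 170 min p.i. with a 15-min static PET.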

SMILES: COc1ccc(CCCC(=O)NCC(=O)N[C@@H](CCCCNC(=O)CN2CCN(CC(=O)[O-])CCN(CC(=O)[O-])CCN(CC(=O)[O-])CC2)C(=O)NC[C@H]2CC[C@H](C(=O)N[C@@H](Cc3ccc4ccccc4c3)C(=O)NCCCC[C@H](NC(=O)N[C@@H](CCC(=O)O)C(=O)O)C(=O)O)CC2)cc1.[68Ga+3] [^68Ga-HTK03086]
- Adrenal glands uptake ([1]; 1 h post-injection): 3.28 ± 0.54 % ID/g
- Blood uptake ([1]; 1 h post-injection): 12.1 ± 0.60 % ID/g
- Bone uptake ([1]; 1 h post-injection): 0.72 ± 0.19 % ID/g
- Brain uptake ([1]; 1 h post-injection): 0.15 ± 0.01 % ID/g
- Fat uptake ([1]; 1 h post-injection): 1.37 ± 0.17 % ID/g
- Heart uptake ([1]; 1 h post-injection): 2.76 ± 0.25 % ID/g
- Intestine uptake ([1]; 1 h post-injection): 0.91 ± 0.07 % ID/g
- Kidneys uptake ([1]; 1 h post-injection): 54.7 ± 4.84 % ID/g
- Lacrimal uptake ([1]; 1 h post-injection): 0.24 ± 0.05 % ID/g
- Liver uptake ([1]; 1 h post-injection): 1.77 ± 0.27 % ID/g
- Lungs uptake ([1]; 1 h post-injection): 5.43 ± 0.65 % ID/g
- Muscle uptake ([1]; 1 h post-injection): 0.94 ± 0.02 % ID/g
- Pancreas uptake ([1]; 1 h post-injection): 1.16 ± 0.11 % ID/g
- Salivary uptake ([1]; 1 h post-injection): 2.51 ± 0.18 % ID/g
- Seminal uptake ([1]; 1 h post-injection): 0.71 ± 0.10 % ID/g
- Spleen uptake ([1]; 1 h post-injection): 2.18 ± 0.51 % ID/g
- Stomach uptake ([1]; 1 h post-injection): 0.34 ± 0.04 % ID/g
- Tail uptake ([1]; 1 h post-injection): 3.39 ± 0.59 % ID/g
- Testes uptake ([1]; 1 h post-injection): 1.54 ± 0.18 % ID/g
- Thyroid uptake ([1]; 1 h post-injection): 2.24 ± 0.15 % ID/g
- Tumor uptake ([1]; 1 h post-injection): 17.8 ± 2.89 % ID/g
- Tumor:Blood ratio ([1]; 1 h post-injection): 1.47 ± 0.28
- Tumor:Muscle ratio ([1]; 1 h post-injection): 18.8 ± 2.968
- Tumor:kidney ratio ([1]; 1 h post-injection): 0.32 ± 0.04
- Urine uptake ([1]; 1 h post-injection): 82.9 ± 62.5 % ID/g
- Adrenal glands uptake ([1]; 3 h post-injection): 1.80 ± 0.39 % ID/g
- Blood uptake ([1]; 3 h post-injection): 6.60 ± 0.84 % ID/g
- Bone uptake ([1]; 3 h post-injection): 0.33 ± 0.16 % ID/g
- Brain uptake ([1]; 3 h post-injection): 0.09 ± 0.02 % ID/g
- Fat uptake ([1]; 3 h post-injection): 0.95 ± 0.12 % ID/g
- Heart uptake ([1]; 3 h post-injection): 1.53 ± 0.21 % ID/g
- Intestine uptake ([1]; 3 h post-injection): 0.71 ± 0.07 % ID/g
- Kidneys uptake ([1]; 3 h post-injection): 48.5 ± 10.7 % ID/g
- Lacrimal uptake ([1]; 3 h post-injection): 0.07 ± 0.04 % ID/g
- Liver uptake ([1]; 3 h post-injection): 1.40 ± 0.35 % ID/g
- Lungs uptake ([1]; 3 h post-injection): 3.49 ± 0.64 % ID/g
- Muscle uptake ([1]; 3 h post-injection): 0.57 ± 0.09 % ID/g
- Pancreas uptake ([1]; 3 h post-injection): 0.70 ± 0.11 % ID/g
- Salivary uptake ([1]; 3 h post-injection): 1.39 ± 0.13 % ID/g
- Seminal uptake ([1]; 3 h post-injection): 0.47 ± 0.09 % ID/g
- Spleen uptake ([1]; 3 h post-injection): 1.58 ± 0.37 % ID/g
- Stomach uptake ([1]; 3 h post-injection): 0.27 ± 0.08 % ID/g
- Tail uptake ([1]; 3 h post-injection): 1.50 ± 0.17 % ID/g
- Testes uptake ([1]; 3 h post-injection): 1.30 ± 0.30 % ID/g
- Thyroid uptake ([1]; 3 h post-injection): 1.39 ± 0.16 % ID/g
- Tumor uptake ([1]; 3 h post-injection): 28.2 ± 5.44 % ID/g
- Tumor:Blood ratio ([1]; 3 h post-injection): 4.33 ± 1.06
- Tumor:Muscle ratio ([1]; 3 h post-injection): 50.5 ± 13.5
- Tumor:kidney ratio ([1]; 3 h post-injection): 0.59 ± 0.10
- Urine uptake ([1]; 3 h post-injection): 1.30 ± 47.9 % ID/g
- change of tumor uptake from 1 h to 3 h post-injection ([2]; PET/CT images): increases over time
- excretion pathway ([2]; PET/CT images): excreted mainly by the renal pathway
- blood retention (qualitative) [2]: significantly higher blood retention

SMILES: O=C([O-])CN1CCN(CC(=O)[O-])CCN(CC(=O)NCCCC[C@H](NC(=O)CNC(=O)CCCc2ccc([N+](=O)[O-])cc2)C(=O)NC[C@H]2CC[C@H](C(=O)N[C@@H](Cc3ccc4ccccc4c3)C(=O)NCCCC[C@H](NC(=O)N[C@@H](CCC(=O)O)C(=O)O)C(=O)O)CC2)CCN(CC(=O)[O-])CC1.[68Ga+3] [^68Ga-HTK03089]
- Adrenal glands uptake ([1]; 1 h post-injection): 4.57 ± 1.06 % ID/g
- Blood uptake ([1]; 1 h post-injection): 6.69 ± 0.27 % ID/g
- Bone uptake ([1]; 1 h post-injection): 0.41 ± 0.08 % ID/g
- Brain uptake ([1]; 1 h post-injection): 0.09 ± 0.01 % ID/g
- Fat uptake ([1]; 1 h post-injection): 2.14 ± 0.29 % ID/g
- Heart uptake ([1]; 1 h post-injection): 1.73 ± 0.14 % ID/g
- Intestine uptake ([1]; 1 h post-injection): 0.76 ± 0.05 % ID/g
- Kidneys uptake ([1]; 1 h post-injection): 91.1 ± 7.42 % ID/g
- Lacrimal uptake ([1]; 1 h post-injection): 0.05 ± 0.03 % ID/g
- Liver uptake ([1]; 1 h post-injection): 1.33 ± 0.27 % ID/g
- Lungs uptake ([1]; 1 h post-injection): 4.68 ± 0.35 % ID/g
- Muscle uptake ([1]; 1 h post-injection): 0.79 ± 0.06 % ID/g
- Pancreas uptake ([1]; 1 h post-injection): 1.00 ± 0.07 % ID/g
- Salivary uptake ([1]; 1 h post-injection): 3.95 ± 0.32 % ID/g
- Seminal uptake ([1]; 1 h post-injection): 0.66 ± 0.24 % ID/g
- Spleen uptake ([1]; 1 h post-injection): 8.56 ± 3.07 % ID/g
- Stomach uptake ([1]; 1 h post-injection): 0.34 ± 0.07 % ID/g
- Tail uptake ([1]; 1 h post-injection): 2.54 ± 0.33 % ID/g
- Testes uptake ([1]; 1 h post-injection): 1.35 ± 0.14 % ID/g
- Thyroid uptake ([1]; 1 h post-injection): 2.32 ± 0.10 % ID/g
- Tumor uptake ([1]; 1 h post-injection): 21.7 ± 2.48 % ID/g
- Tumor:Blood ratio ([1]; 1 h post-injection): 3.25 ± 0.43
- Tumor:Muscle ratio ([1]; 1 h post-injection): 27.4 ± 4.01
- Urine uptake ([1]; 1 h post-injection): 47.9 ± 46.6 % ID/g
- Adrenal glands uptake ([1]; 3 h post-injection): 2.76 ± 0.44 % ID/g
- Blood uptake ([1]; 3 h post-injection): 2.52 ± 0.69 % ID/g
- Bone uptake ([1]; 3 h post-injection): 0.15 ± 0.05 % ID/g
- Brain uptake ([1]; 3 h post-injection): 0.04 ± 0.02 % ID/g
- Fat uptake ([1]; 3 h post-injection): 1.28 ± 0.25 % ID/g
- Heart uptake ([1]; 3 h post-injection): 0.68 ± 0.16 % ID/g
- Intestine uptake ([1]; 3 h post-injection): 0.45 ± 0.10 % ID/g
- Kidneys uptake ([1]; 3 h post-injection): 96.4 ± 21.9 % ID/g
- Lacrimal uptake ([1]; 3 h post-injection): 0.00 ± 0.00 % ID/g
- Liver uptake ([1]; 3 h post-injection): 0.73 ± 0.41 % ID/g
- Lungs uptake ([1]; 3 h post-injection): 2.14 ± 0.42 % ID/g
- Muscle uptake ([1]; 3 h post-injection): 0.29 ± 0.04 % ID/g
- Pancreas uptake ([1]; 3 h post-injection): 0.47 ± 0.07 % ID/g
- Salivary uptake ([1]; 3 h post-injection): 1.45 ± 0.33 % ID/g
- Seminal uptake ([1]; 3 h post-injection): 0.24 ± 0.05 % ID/g
- Spleen uptake ([1]; 3 h post-injection): 2.56 ± 0.89 % ID/g
- Stomach uptake ([1]; 3 h post-injection): 0.19 ± 0.04 % ID/g
- Tail uptake ([1]; 3 h post-injection): 1.01 ± 0.23 % ID/g
- Testes uptake ([1]; 3 h post-injection): 0.73 ± 0.16 % ID/g
- Thyroid uptake ([1]; 3 h post-injection): 0.98 ± 0.25 % ID/g
- Tumor uptake ([1]; 3 h post-injection): 31.2 ± 2.11 % ID/g
- Tumor:Blood ratio ([1]; 3 h post-injection): 13.1 ± 3.76
- Tumor:Muscle ratio ([1]; 3 h post-injection): 108 ± 13.6
- Urine uptake ([1]; 3 h post-injection): 88.5 ± 45.6 % ID/g
- change of tumor uptake from 1 h to 3 h post-injection ([2]; PET/CT images): increases over time
- blood retention (qualitative) [2]: significantly higher blood retention
